Test results published in US20260042743A1, “SUBSTITUTED BENZIMIDAZOLES FOR TREATING VIRAL DISEASES” (COUNCIL OF SCIENTIFIC AND INDUSTRIAL RESEARCH, priority 2022, published 2026).

System: SARS-CoV-2
Experiment: cell-based anti-viral assay using Vero E6 cell line, viral RNA by qRT-PCR
Conditions: Vero E6 cells, 48 h; for ΔCt (1 μM) / inhibition at 1 µM: 1 μM compound; for ΔCt (1 μM) / ΔCt (5 μM): increase in Ct vs no-drug control; for ΔCt (5 μM) / inhibition at 5 µM: 5 μM compound; for inhibition at 1 µM / inhibition at 5 µM: Severe acute respiratory syndrome coronavirus 2, Vero C1008, calculated from ΔCt; for inhibition at 1 µM: read-out: % SARS-CoV-2 Inactivation (1 μM); for inhibition at 5 µM: read-out: % SARS-CoV-2 Inactivation (5 μM)

Compound	ΔCt (1 μM)	ΔCt (5 μM)	inhibition at 1 µM [%]	inhibition at 5 µM [%]
Fc1cccc(Nc2nc3c(C(F)(F)F)cc(C(F)(F)F)cc3[nH]2)c1 [Example 24, N-(3-fluorophenyl)-4,6-bis(trifluoromethyl)-1H-benzo[d]imidazol-2-amine]	0.7	4.3	< 3	> 90
Fc1ccc(Nc2nc3c(C(F)(F)F)cc(C(F)(F)F)cc3[nH]2)cc1 [Example 25, N-(4-fluorophenyl)-4,6-bis(trifluoromethyl)-1H-benzo[d]imidazol-2-amine]	2	3.6	< 3	90
Fc1cc(F)cc(Nc2nc3c(C(F)(F)F)cc(C(F)(F)F)cc3[nH]2)c1 [Example 26, N-(3,5-difluorophenyl)-4,6-bis(trifluoromethyl)-1H-benzo[d]imidazol-2-amine]	3.4	9.4	90	> 99
FC(F)(F)c1ccc(Nc2nc3c(C(F)(F)F)cc(C(F)(F)F)cc3[nH]2)cc1 [Example 27, 4,6-bis(trifluoromethyl)-N-(4-(trifluoromethyl)phenyl)-1H-benzo[d]imidazol-2-amine]	1.2	8	< 3	> 99
FC(F)(F)c1cc(C(F)(F)F)c2nc(Nc3ccccc3C(F)(F)F)[nH]c2c1 [Example 28, 4,6-bis(trifluoromethyl)-N-(2-(trifluoromethyl)phenyl)-1H-benzo[d]imidazol-2-amine]	−2	2	< 3	< 3
FC(F)(F)Oc1ccc2nc(Nc3cc(C(F)(F)F)cc(C(F)(F)F)c3)[nH]c2c1 [Example 29, N-(3,5-bis(trifluoromethyl)phenyl)-6-(trifluoromethoxy)-1H-benzo[d]imidazol-2-amine]	4.7	11.5	> 95	99.9
FC(F)(F)Oc1ccc2nc(Nc3cccc(C(F)(F)F)c3)[nH]c2c1 [Example 30, 6-(trifluoromethoxy)-N-(3-(trifluoromethyl)phenyl)-1H-benzo[d]imidazol-2-amine]	1.1	11.1	< 3	99.9
FC(F)(F)c1cc(Nc2nc3ccc(C(F)(F)F)cc3[nH]2)cc(C(F)(F)F)c1 [Example 31, N-(3,5-bis(trifluoromethyl)phenyl)-6-(trifluoromethyl)-1H-benzo[d]imidazol-2-amine]	5.3	9	> 95	> 99
FC(F)(F)c1cccc(Nc2nc3ccc(C(F)(F)F)cc3[nH]2)c1 [Example 32, 6-(trifluoromethyl)-N-(3-(trifluoromethyl)phenyl)-1H-benzo[d]imidazol-2-amine]	0.2	9.3	< 3	> 99
FC(F)(F)c1ccc(Nc2nc3ccc(C(F)(F)F)cc3[nH]2)cc1 [Example 33, 6-(trifluoromethyl)-N-(4-(trifluoromethyl)phenyl)-1H-benzo[d]imidazol-2-amine]	1.4	14.3	< 3	100
FC(F)(F)c1cc(Nc2nc3c(C(F)(F)F)cccc3[nH]2)cc(C(F)(F)F)c1 [Example 34, N-(3,5-bis(trifluoromethyl)phenyl)-4-(trifluoromethyl)-1H-benzo[d]imidazol-2-amine]	13.1	15.1	> 99.9	100
FC(F)(F)c1cccc(Nc2nc3c(C(F)(F)F)cccc3[nH]2)c1 [Example 35, 4-(trifluoromethyl)-N-(3-(trifluoromethyl)phenyl)-1H-benzo[d]imidazol-2-amine]	1.7	7.5	< 3	99
FC(F)(F)c1ccc(Nc2nc3c(C(F)(F)F)cccc3[nH]2)cc1 [Example 36, 4-(trifluoromethyl)-N-(4-(trifluoromethyl)phenyl)-1H-benzo[d]imidazol-2-amine]	12	12	> 99.9	> 99.9
COc1ccc2nc(Nc3cc(C(F)(F)F)cc(C(F)(F)F)c3)[nH]c2c1 [Example 37, N-(3,5-bis(trifluoromethyl)phenyl)-6-methoxy-1H-benzo[d]imidazol-2-amine]	5	4.3	> 95	> 90
Cn1c(Nc2ccccc2)nc2cc(F)c(F)cc21 [Example 38, 5,6-difluoro-1-methyl-N-phenyl-1H-benzo[d]imidazol-2-amine]	0.4	−0.1	< 3	< 3
Cn1c(Nc2cc(C(F)(F)F)cc(C(F)(F)F)c2)nc2cc(F)c(F)cc21 [Example 39, N-(3,5-bis(trifluoromethyl)phenyl)-5,6-difluoro-1-methyl-1H-benzo[d]imidazol-2-amine]	0.5	1	< 3	< 3
CN(c1cccc(C(F)(F)F)c1)c1nc2c(C(F)(F)F)cc(C(F)(F)F)cc2[nH]1 [Example 40, N-methyl-4,6-bis(trifluoromethyl)-N-(3-(trifluoromethyl)phenyl)-1H-benzo[d]imidazol-2-amine]	5	12.2	> 95	> 99.9
CN(c1cc(C(F)(F)F)cc(C(F)(F)F)c1)c1nc2c(C(F)(F)F)cc(C(F)(F)F)cc2[nH]1 [Example 41, N-(3,5-bis(trifluoromethyl)phenyl)-N-methyl-4,6-bis(trifluoromethyl)-1H-benzo[d]imidazol-2-amine]	3.8	13.4	> 90	> 99.9
CN(c1cccc(C(F)(F)F)c1)c1nc2cccc(C(F)(F)F)c2[nH]1 [Example 42, N-methyl-7-(trifluoromethyl)-N-(3-(trifluoromethyl)phenyl)-1H-benzo[d]imidazol-2-amine]	1	2.1	< 3	< 3
CN(c1ccc(C(F)(F)F)cc1)c1nc2cccc(C(F)(F)F)c2[nH]1 [Example 43, N-methyl-7-(trifluoromethyl)-N-(4-(trifluoromethyl)phenyl)-1H-benzo[d]imidazol-2-amine]	1.8	3.6	< 3	> 90
CN(c1cc(C(F)(F)F)cc(C(F)(F)F)c1)c1nc2cccc(C(F)(F)F)c2[nH]1 [Example 44, N-(3,5-bis(trifluoromethyl)phenyl)-N-methyl-7-(trifluoromethyl)-1H-benzo[d]imidazol-2-amine]	1.4	5	< 3	> 95
